Patent US20150105252A1, “SUBSTITUTED PYRAZOLES AS HERBICIDES” (E I DU PONT DE NEMOURS AND COMPANY, priority 2013, published 2015)

Key:
[1] = system: chickweed; assay: Test D preemergence; type: in vivo, Stellaria media; conditions: scale 0 to 100
Outline: (§1)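 Pre: sown in silt loam, sprayed at once. Post: grown in peat-moss/vermiculite mix, sprayed at 1–4 leaves (2–18 cm). Formulation: non-phytotoxic solvent + surfactant. Read-out: visual 0–100 vs controls, 14–21 d.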

[2] = system: pigweed; assay: Test D preemergence; type: in vivo, Amaranthus retroflexus; conditions: scale 0 to 100
Outline: as §1

[3] = system: mustard, wild; assay: Test D preemergence; type: in vivo, Sinapis arvensis; conditions: scale 0 to 100
Outline: as §1

[4] = system: windgrass; assay: Test D preemergence; type: in vivo, Apera spica-venti; conditions: scale 0 to 100
Outline: as §1

[5] = system: bromegrass, downy; assay: Test D postemergence; type: in vivo, Bromus tectorum; conditions: scale 0 to 100
Outline: as §1

[6] = system: field violet; assay: Test D postemergence; type: in vivo, Viola arvensis; conditions: scale 0 to 100
Outline: as §1

[7] = system: oilseed rape; assay: Test D postemergence; type: in vivo, Brassica napus; conditions: scale 0 to 100
Outline: as §1

[8] = system: wheat, spring; assay: Test D postemergence; type: in vivo, Triticum aestivum; conditions: scale 0 to 100
Outline: as §1

[9] = system: wheat, winter; assay: Test D postemergence; type: in vivo, Triticum aestivum; conditions: scale 0 to 100
Outline: as §1

[10] = system: windgrass; assay: Test D postemergence; type: in vivo, Apera spica-venti; conditions: scale 0 to 100
Outline: as §1

[11] = system: green foxtail; assay: Test F preemergence; type: in vivo, Setaria viridis
From the text: Seeds of plant species selected from corn (Zea mays), soybean (Glycine max), velvetleaf (Abutilon theophrasti), lambsquarters (Chenopodium album), wild poinsettia (Euphorbia heterophylla), pigweed, palmer (palmer pigweed, Amaranthus palmeri), common waterhemp (Amaranthus rudis), surinam grass (Brachiaria decumbens), large crabgrass (Digitaria sanguinalis), crabgrass, Brazil (Brazilian crabgrass, Digitaria horizontalis), fall panicum (Panicum dichotomiflorum), giant foxtail (Setaria faberii), green foxtail (Setaria viridis), goosegrass (Eleusine indica), johnsongrass (Sorghum halepense), common ragweed (Ambrosia elation), barnyardgrass (Echinochloa crus-galli), southern sandbur (Cenchrus echinatus), arrowleaf sida (Sida rhombifolia), Italian ryegrass (Lolium multiflorum), dayflower, VA (Virginia (VA) dayflower, Commelina virginica), field bindweed (Convolvulus arvensis), cocklebur (common cocklebur, Xanthium strumarium), morningglory (Ipomoea coccinea), nightshade (eastern black nightshade, Solanum ptycanthum), kochia (Kochia scoparia), yellow nutsedge (Cyperus esculentus), and hairy beggarticks (Bidens pilosa), were planted into a silt loam soil and treated preemergence with test chemicals formulated in a non-phytotoxic solvent mixture which included a surfactant.
At the same time, plants from these crop and weed species and also horseweed (Canada horseweed, Conyza canadensis), smartweed (ladysthumb smartweed, Polygonum persicaria), waterhemp_RES1, (ALS & Triazine resistant common waterhemp, Amaranthus rudis), and waterhemp_RES2, (ALS & HPPD resistant common waterhemp, Amaranthus rudis) were treated with postemergence applications of test chemicals formulated in the same manner. Plants ranged in height from 2 to 18 cm for postemergence treatments (1- to 4-leaf stage). Treated plants and controls were maintained in a greenhouse for 14 to 21 days, after which time all species were compared to controls and visually evaluated. Plant response ratings, summarized in Table F, are based on a scale of 0 to 100 where 0 is no effect and 100 is complete control. A dash (-) response means no test result.

[12] = system: barnyardgrass; assay: Test F preemergence; type: in vivo, Echinochloa crus-galli
Outline: (§2)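 Percent-control style visual scores, from 0 (no effect) to 100 (complete control), were given relative to controls. Treatment timing: preemergence on silt loam plantings, or postemergence at 1- to 4-leaf stage. Evaluation came 14 to 21 days after spraying, greenhouse conditions.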

[13] = system: nightshade; assay: Test F preemergence; type: in vivo, Solanum ptycanthum
Outline: as §2

[14] = system: yellow nutsedge; assay: Test F preemergence; type: in vivo, Cyperus esculentus
Outline: as §2

[15] = Preemergence, 31 g ai/ha, scale 0 to 100
[16] = Preemergence, 62 g ai/ha, scale 0 to 100
[17] = Preemergence, 125 g ai/ha, scale 0 to 100
[18] = preemergence, 8 g ai/ha, scale 0 to 100, 100 is complete control
[19] = preemergence, 16 g ai/ha, scale 0 to 100, 100 is complete control

CCc1cc(C(=O)NCC(F)(F)F)nn1Cc1ccnc(C(F)(F)F)c1 [Compound 78, 5-ethyl-N-(2,2,2-trifluoroethyl)-1-[[(2-trifluoromethyl)-4-pyridinyl]methyl]-1H-pyrazole-3-carboxamide]
Plant response rating, Chickweed ([1]; 31 g ai/ha): 100 | Plant response rating, Chickweed ([1]; 62 g ai/ha): 100 | Plant response rating, Chickweed ([1]; 125 g ai/ha): 100 | Plant response rating, Chickweed ([1]; 250 g ai/ha): 100 | Plant response rating, Pigweed ([2]; 31 g ai/ha): 100 | Plant response rating, Pigweed ([2]; 62 g ai/ha): 100 | Plant response rating, Pigweed ([2]; 125 g ai/ha): 100 | Plant response rating, Pigweed ([2]; 250 g ai/ha): 100 | Plant response rating, Mustard, Wild ([3]; 31 g ai/ha): 100 | Plant response rating, Mustard, Wild ([3]; 62 g ai/ha): 100 | Plant response rating, Mustard, Wild ([3]; 125 g ai/ha): 100 | Plant response rating, Mustard, Wild ([3]; 250 g ai/ha): 100 | Plant response rating, Windgrass ([4]; 31 g ai/ha): 90 | Plant response rating, Windgrass ([4]; 62 g ai/ha): 100 | Plant response rating, Windgrass ([4]; 125 g ai/ha): 100 | Plant response rating, Windgrass ([4]; 250 g ai/ha): 100 | Bromegrass, Downy plant response rating ([5]; Postemergence, 31 g ai/ha): 10 | Bromegrass, Downy plant response rating ([5]; Postemergence, 125 g ai/ha): 20 | Bromegrass, Downy plant response rating ([5]; Postemergence, 250 g ai/ha): 25 | Bromegrass, Downy plant response rating ([5]; postemergence, 62 g ai/ha): 15 | Field Violet plant response rating ([6]; Postemergence, 31 g ai/ha): 30 | Field Violet plant response rating ([6]; Postemergence, 125 g ai/ha): 60 | Field Violet plant response rating ([6]; Postemergence, 250 g ai/ha): 65 | Field Violet plant response rating ([6]; postemergence, 62 g ai/ha): 40 | Oilseed Rape plant response rating ([7]; Postemergence, 31 g ai/ha): 35 | Oilseed Rape plant response rating ([7]; Postemergence, 125 g ai/ha): 60 | Oilseed Rape plant response rating ([7]; Postemergence, 250 g ai/ha): 80 | Oilseed Rape plant response rating ([7]; postemergence, 62 g ai/ha): 50 | Wheat, Spring plant response rating ([8]; Postemergence, 31 g ai/ha): 0 | Wheat, Spring plant response rating ([8]; Postemergence, 125 g ai/ha): 15 | Wheat, Spring plant response rating ([8]; Postemergence, 250 g ai/ha): 25 | Wheat, Spring plant response rating ([8]; postemergence, 62 g ai/ha): 5 | Wheat, Winter plant response rating ([9]; Postemergence, 31 g ai/ha): 10 | Wheat, Winter plant response rating ([9]; Postemergence, 125 g ai/ha): 25 | Wheat, Winter plant response rating ([9]; Postemergence, 250 g ai/ha): 55 | Wheat, Winter plant response rating ([9]; postemergence, 62 g ai/ha): 15 | Windgrass plant response rating ([10]; Postemergence, 31 g ai/ha): 10 | Windgrass plant response rating ([10]; Postemergence, 125 g ai/ha): 35 | Windgrass plant response rating ([10]; Postemergence, 250 g ai/ha): 60 | Windgrass plant response rating ([10]; postemergence, 62 g ai/ha): 20 | Plant response rating, Green Foxtail [11, 15]: 60 | Plant response rating, Green Foxtail [11, 16]: 100 | Plant response rating, Green Foxtail [11, 17]: 100 | Plant response rating, Green Foxtail [11, 18]: 10 | Plant response rating, Green Foxtail [11, 19]: 60 | Plant response rating, Barnyardgrass [12, 15]: 35 | Plant response rating, Barnyardgrass [12, 16]: 98 | Plant response rating, Barnyardgrass [12, 17]: 100 | Plant response rating, Barnyardgrass [12, 18]: 0 | Plant response rating, Barnyardgrass [12, 19]: 25 | Plant response rating, Nightshade [13, 15]: 95 | Plant response rating, Nightshade [13, 16]: 98 | Plant response rating, Nightshade [13, 17]: 98 | Plant response rating, Nightshade [13, 18]: 0 | Plant response rating, Nightshade [13, 19]: 60 | Plant response rating, Yellow Nutsedge [14, 15]: 20 | Plant response rating, Yellow Nutsedge [14, 16]: 70 | Plant response rating, Yellow Nutsedge [14, 17]: 90 | Plant response rating, Yellow Nutsedge [14, 18]: 0 | Plant response rating, Yellow Nutsedge [14, 19]: 0

CCCc1cc(C(=O)NCC(F)(F)F)nn1Cc1ccnc(C(F)(F)F)c1 [Compound 105]
Plant response rating, Chickweed ([1]; 31 g ai/ha): 95 | Plant response rating, Chickweed ([1]; 62 g ai/ha): 100 | Plant response rating, Chickweed ([1]; 125 g ai/ha): 100 | Plant response rating, Chickweed ([1]; 250 g ai/ha): 100 | Plant response rating, Pigweed ([2]; 31 g ai/ha): 100 | Plant response rating, Pigweed ([2]; 62 g ai/ha): 100 | Plant response rating, Pigweed ([2]; 125 g ai/ha): 100 | Plant response rating, Pigweed ([2]; 250 g ai/ha): 100 | Plant response rating, Mustard, Wild ([3]; 31 g ai/ha): 100 | Plant response rating, Mustard, Wild ([3]; 62 g ai/ha): 100 | Plant response rating, Mustard, Wild ([3]; 125 g ai/ha): 100 | Plant response rating, Mustard, Wild ([3]; 250 g ai/ha): 100 | Plant response rating, Windgrass ([4]; 31 g ai/ha): 75 | Plant response rating, Windgrass ([4]; 62 g ai/ha): 100 | Plant response rating, Windgrass ([4]; 125 g ai/ha): 100 | Plant response rating, Windgrass ([4]; 250 g ai/ha): 100 | Bromegrass, Downy plant response rating ([5]; Postemergence, 31 g ai/ha): 10 | Bromegrass, Downy plant response rating ([5]; Postemergence, 125 g ai/ha): 20 | Bromegrass, Downy plant response rating ([5]; Postemergence, 250 g ai/ha): 30 | Bromegrass, Downy plant response rating ([5]; postemergence, 62 g ai/ha): 15 | Field Violet plant response rating ([6]; Postemergence, 31 g ai/ha): 40 | Field Violet plant response rating ([6]; Postemergence, 125 g ai/ha): 90 | Field Violet plant response rating ([6]; Postemergence, 250 g ai/ha): 100 | Field Violet plant response rating ([6]; postemergence, 62 g ai/ha): 75 | Oilseed Rape plant response rating ([7]; Postemergence, 31 g ai/ha): 40 | Oilseed Rape plant response rating ([7]; Postemergence, 125 g ai/ha): 70 | Oilseed Rape plant response rating ([7]; Postemergence, 250 g ai/ha): 85 | Oilseed Rape plant response rating ([7]; postemergence, 62 g ai/ha): 60 | Wheat, Spring plant response rating ([8]; Postemergence, 31 g ai/ha): 5 | Wheat, Spring plant response rating ([8]; Postemergence, 125 g ai/ha): 20 | Wheat, Spring plant response rating ([8]; Postemergence, 250 g ai/ha): 40 | Wheat, Spring plant response rating ([8]; postemergence, 62 g ai/ha): 10 | Wheat, Winter plant response rating ([9]; Postemergence, 31 g ai/ha): 10 | Wheat, Winter plant response rating ([9]; Postemergence, 125 g ai/ha): 40 | Wheat, Winter plant response rating ([9]; Postemergence, 250 g ai/ha): 70 | Wheat, Winter plant response rating ([9]; postemergence, 62 g ai/ha): 15 | Windgrass plant response rating ([10]; Postemergence, 31 g ai/ha): 15 | Windgrass plant response rating ([10]; Postemergence, 125 g ai/ha): 40 | Windgrass plant response rating ([10]; Postemergence, 250 g ai/ha): 70 | Windgrass plant response rating ([10]; postemergence, 62 g ai/ha): 25 | Plant response rating, Green Foxtail [11, 15]: 75 | Plant response rating, Green Foxtail [11, 16]: 100 | Plant response rating, Green Foxtail [11, 17]: 100 | Plant response rating, Green Foxtail [11, 18]: 0 | Plant response rating, Green Foxtail [11, 19]: 25 | Plant response rating, Barnyardgrass [12, 15]: 30 | Plant response rating, Barnyardgrass [12, 16]: 98 | Plant response rating, Barnyardgrass [12, 17]: 98 | Plant response rating, Barnyardgrass [12, 18]: 0 | Plant response rating, Barnyardgrass [12, 19]: 5 | Plant response rating, Nightshade [13, 15]: 70 | Plant response rating, Nightshade [13, 16]: 100 | Plant response rating, Nightshade [13, 17]: 100 | Plant response rating, Nightshade [13, 18]: 0 | Plant response rating, Nightshade [13, 19]: 65 | Plant response rating, Yellow Nutsedge [14, 15]: 25 | Plant response rating, Yellow Nutsedge [14, 16]: 25 | Plant response rating, Yellow Nutsedge [14, 17]: 65 | Plant response rating, Yellow Nutsedge [14, 18]: 0 | Plant response rating, Yellow Nutsedge [14, 19]: 0
